Data as given in patent publication US20030133918A1, “Methods for ex vivo propagation of somatic stem cells” (priority 2001, published 2003).

What was measured:
[1] = test system: rat liver epithelial cell strains; experiment: Colony formation assay of rat liver epithelial cell strains in Xs-free or Xs-containing medium; assay type: cell-based; details: for Colony formation efficiency Xs+/Xs− Ratio: 50 μM xanthosine vs Xs-free medium; for Colony formation efficiency, Xs+ (Mean % ± SD; n = 6): 50 μM xanthosine, 14 days, 200 cells per well
From the text: Three Xs-free (“Xs-F”) cell strains and 8 Xs-derived (“Xs-D”) cell strains were chosen for cell kinetics analysis. Despite the similarities in their derivation course, there is a remarkable difference in the growth properties of Xs-F and Xs-D cell strains (see Table 1). […] This is a highly significance difference (p=0.004). […] The estimated mean increase in colony formation efficiency for Xs-D strains in Xs-containing medium is 11-fold, ranging from a 10% (Xs-D9; not statistically significant) to a 40-fold increase (Xs-D13; p<0.0001). The growth of Xs-F strains was unaffected by Xs even at the higher concentration of 100 μM (data not shown). [table]

[2] = test system: Rat liver epithelial cells; experiment: Clonal derivation of rat liver epithelial cells by limiting dilution in 96-well plates; assay type: cell-based
From the text: Using xanthosine (Xs) as a pharmacological agent to switch tissue stem cells from their default asymmetric cell kinetics program to exponential kinetics, we attempted to derive clonal rat liver epithelial stem cell lines that retained the ability to divide with asymmetric cell kinetics when Xs was removed. Rat liver epithelial cells found in the low-speed supernatant of centrifuged cells from in situ collagenase-perfused livers were clonally-derived by limiting dilution in 96-well plates in the absence or presence of added Xs (200 μM or 400 μM). Colonies with epithelial cell morphology arose with similar efficiency under both conditions (4.1±0.31 percent for both 480 Xs− wells and 960 Xs+ wells). The efficiency of establishing cell strains from these initial colonies was also similar, 50% (3/6) for colonies expanded in Xs-free medium and 65% (11/17) for colonies derived in Xs-containing medium. Each type of cell strain has now been maintained continuously in culture for >80 cell doublings. Early passage cells were cryo-preserved in liquid nitrogen and can be re-established in culture after thawing.

Question: `O=c1[nH]c(=O)c2ncn([C@@H]3O[C@H](CO)[C@@H](O)[C@H]3O)c2[nH]1` [Xs, xanthosine] was tested. Which “Growth of Xs-F strains” value ([1]; Xs-F strains, even at the higher concentration of 100 μM, data not shown) did it give?
Answer: The value was “unaffected”.

Question: What about the “Colony formation efficiency Xs+/Xs− Ratio” value ([1]; cell strain Xs-D4) of the same compound?
Answer: The value was 1.5.

Question: And the “Colony formation efficiency, Xs+ (Mean % ± SD; n = 6)” value ([1]; cell strain Xs-D4)?
Answer: Its value is 8.0 ± 1.1%.

Question: And the “Colony formation efficiency Xs+/Xs− Ratio” value ([1]; cell strain Xs-D6)?
Answer: The value was 1.4.

Question: What about the “Colony formation efficiency, Xs+ (Mean % ± SD; n = 6)” value ([1]; cell strain Xs-D6) of the same compound?
Answer: Its value is 5.3 ± 1.8%.

Question: And the “Colony formation efficiency Xs+/Xs− Ratio” value ([1]; cell strain Xs-D7)?
Answer: Its value is “≧22”.

Question: And the “Colony formation efficiency, Xs+ (Mean % ± SD; n = 6)” value ([1]; cell strain Xs-D7)?
Answer: Its value is 6.7 ± 2.2%.

Question: What about the “Colony formation efficiency Xs+/Xs− Ratio” value ([1]; cell strain Xs-D8) of the same compound?
Answer: Its value is 17.

Question: And the “Colony formation efficiency, Xs+ (Mean % ± SD; n = 6)” value ([1]; cell strain Xs-D8)?
Answer: Its value is 22 ± 3.6%.

Question: And the “Colony formation efficiency Xs+/Xs− Ratio” value ([1]; cell strain Xs-D9)?
Answer: The value was 1.1.

Question: What about the “Colony formation efficiency, Xs+ (Mean % ± SD; n = 6)” value ([1]; cell strain Xs-D9) of the same compound?
Answer: Its value is 11 ± 2.6%.

Question: What about the “Colony formation efficiency Xs+/Xs− Ratio” value ([1]; cell strain Xs-D13) of the same compound?
Answer: The value was 40.

Question: And the “Colony formation efficiency, Xs+ (Mean % ± SD; n = 6)” value ([1]; cell strain Xs-D13)?
Answer: Its value is 12 ± 2.7%.

Question: What about the “Colony formation efficiency Xs+/Xs− Ratio” value ([1]; cell strain Xs-D14) of the same compound?
Answer: Its value is 1.3.

Question: And the “Colony formation efficiency, Xs+ (Mean % ± SD; n = 6)” value ([1]; cell strain Xs-D14)?
Answer: Its value is 0.4 ± 0.67%.

Question: What about the “Colony formation efficiency Xs+/Xs− Ratio” value ([1]; cell strain Xs-D15) of the same compound?
Answer: Its value is 5.3.

Question: What about the “Colony formation efficiency, Xs+ (Mean % ± SD; n = 6)” value ([1]; cell strain Xs-D15) of the same compound?
Answer: The value was 10 ± 1.6%.

Question: And the “Colony formation efficiency Xs+/Xs− Ratio” value ([1]; cell strain Xs-F1)?
Answer: The value was 0.9.

Question: And the “Colony formation efficiency, Xs+ (Mean % ± SD; n = 6)” value ([1]; cell strain Xs-F1)?
Answer: The value was 9.8 ± 2.2%.

Question: What about the “Colony formation efficiency Xs+/Xs− Ratio” value ([1]; cell strain Xs-F2) of the same compound?
Answer: Its value is 1.0.

Question: What about the “Colony formation efficiency, Xs+ (Mean % ± SD; n = 6)” value ([1]; cell strain Xs-F2) of the same compound?
Answer: The value was 29 ± 3.7%.

Question: And the “Colony formation efficiency Xs+/Xs− Ratio” value ([1]; cell strain Xs-F3)?
Answer: Its value is 1.0.

Question: And the “Colony formation efficiency, Xs+ (Mean % ± SD; n = 6)” value ([1]; cell strain Xs-F3)?
Answer: The value was 18 ± 3.7%.

Question: And the “Estimated mean increase in colony formation efficiency for Xs-D strains in Xs-containing medium” value ([1]; mean of 8 Xs-D strains, Xs-containing vs Xs-free medium)?
Answer: The value was 11 fold.

Question: What about the “Increase in colony formation efficiency in Xs-containing medium” value ([1]; strain Xs-D9, not statistically significant) of the same compound?
Answer: The value was 10%.

Question: And the “Increase in colony formation efficiency in Xs-containing medium” value ([1]; strain Xs-D13, p<0.0001)?
Answer: The value was 40 fold.

Question: And the “Efficiency with which colonies with epithelial cell morphology arose” value ([2]; 960 Xs+ wells, added Xs 200 μM or 400 μM, same value for 480 Xs− wells)?
Answer: Its value is 4.1±0.31%.

Question: What about the “Efficiency of establishing cell strains from initial colonies” value ([2]; colonies derived in Xs-containing medium (11/17), Xs-free 50% (3/6)) of the same compound?
Answer: The value was 65%.
